According to patent US11191811B2, “Osteocalcin as a treatment for frailty associated with aging” (THE TRUSTEES OF COLUMBIA UNIVERSITY IN THE CITY OF NEW YORK, priority 2014, dated 2021):

Assays:
[1] = tested on: wild type mice injected with gold thioglucose (GTG); test: GTG-induced obesity; format: in vivo, mouse
Protocol: FIG. 5. Osteocalcin subcutaneous infusion alleviates GTG-induced obesity in wild-type mice. Wild-type mice were injected with gold thioglucose (GTG) or vehicle to induce hyperphagia and obesity. Two weeks later they were implanted with subcutaneous osmotic pumps infusing […] of recombinant osteocalcin or PBS for 28 days before. Body weight gain was recorded thereafter at indicated days.
For GTG-induced obesity, male and female 4 week-old wild-type (WT) and Osteocalcin^−/− mice (n=10 per group) were injected with […] of GTG
The effect of uncarboxylated osteocalcin on GTG-induced obesity was investigated (FIG. 5). Wild type mice were injected with gold thioglucose (GTG) to induce hyperphagia and obesity or vehicle. Two weeks later they were implanted with subcutaneous osmotic pumps infusing 1 ng/hr of recombinant uncarboxylated osteocalcin or PBS for 28 days. […] At 28 days, body weight was reduced by about 15% with uncarboxylated osteocalcin treatment.

Osteocalcin−/− mice = test: Behavioral tests of Osteocalcin−/− mice with ICV infusion (DLT, EPMT, OFT, FST, TST); format: in vivo, mouse; conditions: for anxiety / depression: ICV infusion 10 ng/hour, week-long, Osteocalcin−/− mice
Protocol: FIG. 12. Administration of osteocalcin alleviates anxiety and depression. (A-E) Behavioral analyses of adult Osteocalcin^−/− mice receiving recombinant uncarboxylated osteocalcin through intracerebro-ventricular (ICV) infusions. (A) Light and Dark test, (B) Elevated plus maze test, (C) Open field test, (D) Forced swim test, and (E) Tail suspension test performed in a cohort of WT (n=7) and Osteocalcin^−/− infused with vehicle or recombinant uncarboxylated osteocalcin (10 ng/hour). In each set of three bars, the rightmost bar represents the results following administration of osteocalcin.
For osteocalcin delivery to pregnant mice, IP injections (240 ng/day) were performed as soon as a plug was present daily until delivery (E0.5-E18.5). For osteocalcin or leptin infusion in adult Osteocalcin^−/− or ob/ob mice, pumps (Alzet micro-osmotic pump, Model 1002) delivering osteocalcin (300 ng/hr), leptin (50 ng/hr), or vehicle were surgically installed subcutaneously in the backs of 3-month old mice. For the postnatal rescue of cognitive functions in Osteocalcin^−/− mice, osteocalcin (10 ng/hour) or vehicle were delivered intrasubventricularly (icv) as previously described (Ducy et al., 2000, Cell 100:197-207). Leptin and osteocalcin content in sera and tissues were determined by ELISA.
Tail suspension testing was performed as previously described (Mayorga et al., 2001, J. Pharmacology Exper. Therapeutics 298:1101-1107; Steru et al., 1985, Psychopharmacology 85:367-370). Mice were transported a short distance from the holding facility to the testing room and left there undisturbed for at least 1 hour. Mice were individually suspended by the tail (distance from floor was 35 cm) using adhesive tape (distance from tip of tail was 2 cm). […] The parameter recorded was the number of seconds spent immobile. Mice were scored by a highly trained observer, over a 5 min period, blind to the genotype of the mice.
Anxiety and locomotor activity of mice were measured using the open field test (David et al., 2009, Neuron 62:479-493). Each animal was placed in a 43×43 cm open field chamber, and tested for 30 min. Mice were monitored throughout each test session by video tracking and analyzed using Matlab software. Mice were placed individually into the center of the open-field arena and allowed to explore freely. The overall motor activity was quantified as the total distance travelled. The anxiety was quantified measuring the number of rearings and the time and distance spent in the center versus periphery of the open field chamber (in %).
Each mouse was allowed to explore the apparatus for 5 min. Global activity was assessed by measuring the number of entries […] (David et al, 2009, Neuron 62:479-493). Anxiety was assessed by comparing the time spent in the open arms.
The forced swimming test was carried out according to the method described by David et al., 2009, Neuron 62:479-493. Briefly, mice were dropped individually into glass cylinders (height: 25 cm, diameter: 10 cm) containing 10 cm water height., maintained at 23-25° C. Animals were tested for a total of 6 min. The total duration of immobility time was recorded. Mice were considered immobile when they made no attempts to escape with the exception of the movements necessary to keep their heads above the water. Mice were scored by an observer blind to their genotypes.
The test was performed in a quiet, darkened room. Mice were individually housed in cages containing a handful of bedding from their home cage and acclimated to the room at least 1 h before the test. Naïve mice were placed individually in the testing chamber in the dark compartment. The test was 5 min in duration, and time spent and number of entries in light compartments were recorded a highly trained observer, blind to the genotype of the mice. […]

WT myotubes = test: Western blot of Akt phosphorylation (Ser473) in cultured myotubes; format: cell-based, mouse; conditions: Ocn 10 ng/ml
Protocol: FIG. 26. Osteocalcin signaling in myofibers promotes glucose uptake. (A) VO2, (B) VO2 max and (C) RER in female Gprc6af/f and Gprc6aMck−/− mice during a gradual speed increase test. (D-E) Uptake of ^3H-2-deoxyglucose (^3H-2-DG) in WT and Gprc6a−/− myotubes treated with vehicle or Ocn (dose indicated in panel D, 10 ng/ml in panel E). (F) Uptake of ^3H-2-DG in glycolytic (Gly—white quadriceps) and oxidative (Ox—red quadriceps) muscles after a single bout of exercise in Gprc6af/f and Gprc6aMck^−/− mice (n=4 per group). (G) Blood glucose levels in Gprc6af/f and Gprc6aMck−/− mice after running on a treadmill until exhaustion (n=4 per group). (H) Blood glucose levels in Gprc6af/f and Gprc6aHsa−/− mice after running on a treadmill until exhaustion (n=4 per group). (I) Western blot analyses of Akt phosphorylation (Ser473) in WT myotubes treated with Ocn (10 ng/ml) and in muscles of WT mice injected with Ocn (500 ng/g) after a single bout of exercise. (J) Western blot analyses of Akt phosphorylation (Ser473) in Gprc6af/f and Gprc6aMck−/− muscles after a single bout of exercise. (K) Glycogen content and glycogen breakdown in Gprc6af/f and Gprc6aMck−/− muscles at rest and after exercise.
Culture of skeletal muscle myoblasts from 7 day-old mice was performed as described (Gharaibeh et al., 2008, Nature Protocols 3:1501-1509). […]

muscle = test: S6K phosphorylation and protein synthesis; conditions: FIG. 23; for protein synthesis: in muscle
Source text: FIG. 23. Osteocalcin promotes S6K phosphorylation and protein synthesis.
It has been shown that in muscle osteocalcin favors glucose uptake, glycolysis, fatty acid oxidation, and protein synthesis.

[2] = listed as undercarboxylated/uncarboxylated osteocalcin

For “uncarboxylated osteocalcin: Recombinant uncarboxylated mouse osteocalcin, bacterially produced, purified on glutathione beads and cleaved from the GST subunit by thrombin (YLGASVPSPDPLEPTREQCELNPACDELSDQYGLKTAYKRIYGITI)”, the body weight gain ([1]; 1 ng/hr subcutaneous osmotic pumps for 28 days, from 7 days on) was “significantly reduced”, the “reduction of body weight” value ([1]; 1 ng/hr, at 28 days) was “about 15%” and the GTG-induced obesity ([1]; subcutaneous infusion 28 days (FIG. 5 title)) was “alleviates”. For the same substance, the anxiety (Osteocalcin−/− mice) was “corrected”, the depression (Osteocalcin−/− mice) was “corrected” and the anxiety (Osteocalcin−/− mice; listed as osteocalcin) was “alleviates”. The depression (Osteocalcin−/− mice; listed as osteocalcin) was “alleviates”, the anxiety (Osteocalcin−/− mice; [2]) was “rescued” and the depression (Osteocalcin−/− mice; [2]) was “rescued”. The learning and memory (Osteocalcin−/− mice; direct administration to the brains of adult Osteocalcin−/− mice) was “rescued”, the “phosphorylation of Akt in cultured myotubes” value (WT myotubes) was “induced” and the S6K phosphorylation (muscle) was “promotes”. For the same substance, the protein synthesis (muscle; listed as Osteocalcin) was “promotes” and the protein synthesis (muscle; listed as osteocalcin) was “favors”.
